Test results from ChEMBL document CHEMBL1201862, “PubChem BioAssay data set” (2004).
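Interpolation was linear, between the two tested concentrations surrounding the appropriate level; five concentrations were tested over 48 hours in 96-well plates. GI50 marks 50% less growth.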 Activity calls are given as the source filed them. Cut-off read from the data, not from the text of the source: active = GI50 up to about 1.1 µM and inactive = higher.

Columns and labels:
Assay in all cases: NCI-60 cell line screen, 48 h
SK-OV-3 = test system: SK-OV-3
K562 = test system: K562
HT-29 = test system: HT-29
HOP-92 = test system: HOP-92
XF498 = test system: XF498
TK-10 = test system: TK-10
DMS-114 = test system: DMS-114
LOX IMVI = test system: LOX IMVI
OVCAR-5 = test system: OVCAR-5
KM-20L2 = test system: KM-20L2
A549 = test system: A549
UACC-257 = test system: UACC-257
NCI-H460 = test system: NCI-H460
ACHN = test system: ACHN
HOP-18 = test system: HOP-18
RXF 393 = test system: RXF 393
MOLT-4 = test system: MOLT-4
CCRF-CEM = test system: CCRF-CEM
UO-31 = test system: UO-31
LXFL 529 = test system: LXFL 529
SK-MEL-2 = test system: SK-MEL-2
NCI-H522 = test system: NCI-H522
SNB-19 = test system: SNB-19
SN12C = test system: SN12C
SK-MEL-5 = test system: SK-MEL-5
A498 = test system: A498
IGROV-1 = test system: IGROV-1
U-251 = test system: U-251
CAKI-1 = test system: CAKI-1
NCI-H226 = test system: NCI-H226
HCT-15 = test system: HCT-15
DLD-1 = test system: DLD-1
NCI-H23 = test system: NCI-H23
SNB-75 = test system: SNB-75
OVCAR-4 = test system: OVCAR-4
UACC-62 = test system: UACC-62
SF-295 = test system: SF-295
DMS-273 = test system: DMS-273
RXF 631 = test system: RXF 631
SF-539 = test system: SF-539
HCC 2998 = test system: HCC 2998
SK-MEL-28 = test system: SK-MEL-28
M14 = test system: M14
SNB-78 = test system: SNB-78
786-0 = test system: 786-0
RPMI-8226 = test system: RPMI-8226
HOP-62 = test system: HOP-62
HCT-116 = test system: HCT-116
OVCAR-8 = test system: OVCAR-8
SW-620 = test system: SW-620
M19-MEL = test system: M19-MEL
EKVX = test system: EKVX
SR = test system: SR
Malme-3M = test system: Malme-3M
SF-268 = test system: SF-268
KM12 = test system: KM12
HL-60 = test system: HL-60
OVCAR-3 = test system: OVCAR-3
COLO 205 = test system: COLO 205

O=c1nc(N2CCCC2)nc(N2CCCC2)s1
GI50 (SK-OV-3): > 100 µM (inactive) | GI50 (K562): > 100 µM (inactive) | GI50 (HT-29): > 100 µM (inactive) | GI50 (HOP-92): > 100 µM (inactive) | GI50 (XF498): > 100 µM (inactive) | GI50 (TK-10): > 100 µM (inactive) | GI50 (DMS-114): > 100 µM (inactive) | GI50 (LOX IMVI): > 100 µM (inactive) | GI50 (OVCAR-5): > 100 µM (inactive) | GI50 (KM-20L2): > 100 µM (inactive) | GI50 (A549): > 100 µM (inactive) | GI50 (UACC-257): > 100 µM (inactive) | GI50 (NCI-H460): > 100 µM (inactive) | GI50 (ACHN): > 100 µM (inactive) | GI50 (HOP-18): > 100 µM (inactive) | GI50 (RXF 393): > 100 µM (inactive) | GI50 (MOLT-4): > 100 µM (inactive) | GI50 (CCRF-CEM): > 100 µM (inactive) | GI50 (UO-31): 78.7 µM (inactive) | GI50 (LXFL 529): > 100 µM (inactive) | GI50 (SK-MEL-2): > 100 µM (inactive) | GI50 (NCI-H522): > 100 µM (inactive) | GI50 (SNB-19): > 100 µM (inactive) | GI50 (SN12C): > 100 µM (inactive) | GI50 (SK-MEL-5): > 100 µM (inactive) | GI50 (A498): > 100 µM (inactive) | GI50 (IGROV-1): > 100 µM (inactive) | GI50 (U-251): > 100 µM (inactive) | GI50 (CAKI-1): 97.9 µM (inactive) | GI50 (NCI-H226): 7.21 µM (inactive) | GI50 (HCT-15): > 100 µM | GI50 (DLD-1): > 100 µM (inactive) | GI50 (NCI-H23): > 100 µM (inactive) | GI50 (SNB-75): > 100 µM (inactive) | GI50 (OVCAR-4): > 100 µM (inactive) | GI50 (UACC-62): > 100 µM (inactive) | GI50 (SF-295): > 100 µM (inactive) | GI50 (DMS-273): > 100 µM (inactive) | GI50 (RXF 631): > 100 µM (inactive) | GI50 (SF-539): > 100 µM (inactive) | GI50 (HCC 2998): > 100 µM (inactive) | GI50 (SK-MEL-28): > 100 µM (inactive) | GI50 (M14): > 100 µM (inactive) | GI50 (SNB-78): > 100 µM (inactive) | GI50 (786-0): > 100 µM (inactive) | GI50 (RPMI-8226): > 100 µM (inactive) | GI50 (HOP-62): > 100 µM (inactive) | GI50 (HCT-116): > 100 µM (inactive) | GI50 (OVCAR-8): > 100 µM (inactive) | GI50 (SW-620): > 100 µM (inactive) | GI50 (M19-MEL): > 100 µM (inactive) | GI50 (EKVX): > 100 µM (inactive) | GI50 (SR): > 100 µM (inactive) | GI50 (Malme-3M): > 100 µM (inactive) | GI50 (SF-268): > 100 µM (inactive) | GI50 (KM12): > 100 µM (inactive) | GI50 (HL-60): > 100 µM (inactive)

COc1cc(-c2nnc3n2NC=C(C(=O)O)S3)cc(OC)c1OC
GI50 (SK-OV-3): > 100 µM (inactive) | GI50 (K562): > 43.1 µM (inactive) | GI50 (HT-29): > 100 µM (inactive) | GI50 (HOP-92): > 100 µM (inactive) | GI50 (XF498): > 100 µM (inactive) | GI50 (TK-10): > 100 µM (inactive) | GI50 (DMS-114): > 56.5 µM (inactive) | GI50 (LOX IMVI): > 100 µM (inactive) | GI50 (OVCAR-5): > 100 µM (inactive) | GI50 (KM-20L2): > 59.2 µM (inactive) | GI50 (A549): > 100 µM (inactive) | GI50 (UACC-257): > 100 µM (inactive) | GI50 (NCI-H460): > 71.4 µM (inactive) | GI50 (ACHN): > 100 µM (inactive) | GI50 (HOP-18): > 70.1 µM (inactive) | GI50 (RXF 393): > 100 µM (inactive) | GI50 (OVCAR-3): > 100 µM (inactive) | GI50 (MOLT-4): > 100 µM (inactive) | GI50 (CCRF-CEM): 29.7 µM (inactive) | GI50 (UO-31): > 100 µM (inactive) | GI50 (LXFL 529): > 71.6 µM (inactive) | GI50 (SK-MEL-2): > 100 µM (inactive) | GI50 (NCI-H522): > 100 µM (inactive) | GI50 (SNB-19): > 100 µM (inactive) | GI50 (SN12C): > 93.1 µM (inactive) | GI50 (SK-MEL-5): > 100 µM (inactive) | GI50 (A498): > 100 µM (inactive) | GI50 (IGROV-1): > 100 µM (inactive) | GI50 (U-251): > 68.2 µM (inactive) | GI50 (CAKI-1): > 100 µM (inactive) | GI50 (NCI-H226): > 100 µM (inactive) | GI50 (HCT-15): > 54.5 µM | GI50 (DLD-1): > 57.8 µM (inactive) | GI50 (NCI-H23): > 100 µM (inactive) | GI50 (SNB-75): > 100 µM (inactive) | GI50 (OVCAR-4): > 62.2 µM (inactive) | GI50 (UACC-62): > 93.5 µM (inactive) | GI50 (SF-295): > 100 µM (inactive) | GI50 (DMS-273): > 60.3 µM (inactive) | GI50 (RXF 631): > 100 µM (inactive) | GI50 (SF-539): > 42.8 µM (inactive) | GI50 (HCC 2998): > 100 µM (inactive) | GI50 (COLO 205): > 57.5 µM (inactive) | GI50 (SK-MEL-28): > 100 µM (inactive) | GI50 (M14): > 81.3 µM (inactive) | GI50 (SNB-78): > 100 µM (inactive) | GI50 (786-0): > 58.7 µM (inactive) | GI50 (RPMI-8226): > 49.4 µM (inactive) | GI50 (HOP-62): > 100 µM (inactive) | GI50 (HCT-116): > 55.1 µM (inactive) | GI50 (OVCAR-8): > 100 µM (inactive) | GI50 (SW-620): > 39.5 µM (inactive) | GI50 (M19-MEL): > 69.3 µM (inactive) | GI50 (EKVX): > 100 µM (inactive) | GI50 (SR): 41.6 µM (inactive) | GI50 (Malme-3M): > 100 µM (inactive) | GI50 (SF-268): > 76.9 µM (inactive) | GI50 (KM12): > 95.1 µM (inactive) | GI50 (HL-60): > 61.4 µM (inactive)

COC(=O)/C=C1/CCC2[C@@H](C(=O)CC3[C@]2(C)CCC[C@@]3(C)C(=O)OC)C1C (some centres not stated)
GI50 (SK-OV-3): 30.9 µM (inactive) | GI50 (K562): 3.18 µM (inactive) | GI50 (HT-29): 5.64 µM (inactive) | GI50 (HOP-92): 5.13 µM (inactive) | GI50 (XF498): 15.3 µM (inactive) | GI50 (TK-10): 20 µM (inactive) | GI50 (DMS-114): 10.3 µM (inactive) | GI50 (OVCAR-5): 20 µM (inactive) | GI50 (KM-20L2): 13.1 µM (inactive) | GI50 (A549): 15.6 µM (inactive) | GI50 (UACC-257): 10.4 µM (inactive) | GI50 (NCI-H460): 14.2 µM (inactive) | GI50 (ACHN): 10.1 µM (inactive) | GI50 (HOP-18): 14.4 µM (inactive) | GI50 (OVCAR-3): 7.67 µM (inactive) | GI50 (MOLT-4): 4.04 µM (inactive) | GI50 (CCRF-CEM): 3.56 µM (inactive) | GI50 (UO-31): 15.1 µM (inactive) | GI50 (LXFL 529): 6.22 µM (inactive) | GI50 (SK-MEL-2): 16 µM (inactive) | GI50 (NCI-H522): 5.07 µM (inactive) | GI50 (SNB-19): 17.4 µM (inactive) | GI50 (SN12C): 15.3 µM (inactive) | GI50 (SK-MEL-5): 5.69 µM (inactive) | GI50 (A498): 17.7 µM (inactive) | GI50 (IGROV-1): 20.2 µM (inactive) | GI50 (U-251): 15.4 µM (inactive) | GI50 (CAKI-1): 5.36 µM (inactive) | GI50 (NCI-H226): 21.2 µM (inactive) | GI50 (HCT-15): 14 µM | GI50 (DLD-1): 12.7 µM (inactive) | GI50 (NCI-H23): 11.2 µM (inactive) | GI50 (SNB-75): 8.99 µM (inactive) | GI50 (OVCAR-4): 8.73 µM (inactive) | GI50 (UACC-62): 10.7 µM (inactive) | GI50 (SF-295): 17.7 µM (inactive) | GI50 (DMS-273): 12.7 µM (inactive) | GI50 (RXF 631): 15.5 µM (inactive) | GI50 (SF-539): 14.9 µM (inactive) | GI50 (HCC 2998): 20.1 µM (inactive) | GI50 (COLO 205): 5.57 µM (inactive) | GI50 (SK-MEL-28): 13.3 µM (inactive) | GI50 (M14): 13.2 µM (inactive) | GI50 (SNB-78): 10 µM (inactive) | GI50 (786-0): 14.9 µM (inactive) | GI50 (RPMI-8226): 2.98 µM (inactive) | GI50 (HOP-62): 21.9 µM (inactive) | GI50 (HCT-116): 5.79 µM (inactive) | GI50 (OVCAR-8): 12.3 µM (inactive) | GI50 (SW-620): 5.86 µM (inactive) | GI50 (M19-MEL): 15.5 µM (inactive) | GI50 (EKVX): 24 µM (inactive) | GI50 (Malme-3M): 16.1 µM (inactive) | GI50 (SF-268): 15 µM (inactive) | GI50 (KM12): 12.6 µM (inactive) | GI50 (HL-60): 2.61 µM (inactive)
